Measured values from article PMC2967600 (Peptides, 2010).
pEC50: −log10 of the molar value. Ends that are not written are not given here.

Key:
hMC5R = hMC5R (Homo sapiens, UniProt P33032); settings: Bednarek et al.; cited from earlier work
rat MC5R = settings: CHO cells; cited from earlier work
mMC3R = mMC3R (Mus musculus, UniProt P33033); test: cAMP based functional bioassay; type: cell-based
mMC5R = mMC5R (Mus musculus, UniProt P41149); test: cAMP based functional bioassay; type: cell-based; settings: mMC5R EC50, agonist; mean ± SEM; >100000 = no activity at up to 100μM
Sequence of mMC5R (P41149 whole entry): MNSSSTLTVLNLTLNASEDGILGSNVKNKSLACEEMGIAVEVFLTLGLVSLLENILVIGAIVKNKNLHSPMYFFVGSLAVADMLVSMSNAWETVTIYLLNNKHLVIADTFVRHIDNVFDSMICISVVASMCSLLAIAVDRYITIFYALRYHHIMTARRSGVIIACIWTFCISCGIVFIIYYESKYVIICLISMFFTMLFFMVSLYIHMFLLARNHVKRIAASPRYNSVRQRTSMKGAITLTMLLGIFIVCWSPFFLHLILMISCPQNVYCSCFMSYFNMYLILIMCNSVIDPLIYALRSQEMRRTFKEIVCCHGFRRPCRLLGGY

melanocortin receptors = settings: cited from earlier work

Sequence of mMC3R (P33033 whole entry): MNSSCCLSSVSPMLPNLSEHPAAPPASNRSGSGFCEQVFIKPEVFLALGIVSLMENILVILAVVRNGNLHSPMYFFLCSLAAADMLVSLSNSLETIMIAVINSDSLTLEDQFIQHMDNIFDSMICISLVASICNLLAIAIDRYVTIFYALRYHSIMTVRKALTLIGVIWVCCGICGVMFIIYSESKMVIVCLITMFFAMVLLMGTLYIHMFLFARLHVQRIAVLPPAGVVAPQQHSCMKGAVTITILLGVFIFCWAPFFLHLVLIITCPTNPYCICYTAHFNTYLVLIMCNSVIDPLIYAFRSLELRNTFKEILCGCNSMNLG
Sequence of hMC5R (P33032 whole entry): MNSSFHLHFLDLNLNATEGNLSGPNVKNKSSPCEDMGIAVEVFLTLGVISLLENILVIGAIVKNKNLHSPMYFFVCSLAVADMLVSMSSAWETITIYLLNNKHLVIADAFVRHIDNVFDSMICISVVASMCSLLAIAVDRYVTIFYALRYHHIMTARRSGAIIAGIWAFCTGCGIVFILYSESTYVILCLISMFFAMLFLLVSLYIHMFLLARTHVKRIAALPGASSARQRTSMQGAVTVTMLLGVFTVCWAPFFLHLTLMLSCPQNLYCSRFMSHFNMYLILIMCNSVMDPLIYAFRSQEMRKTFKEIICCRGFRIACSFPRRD

In the case of HS024, the “functional activity at the hMC5R” value (hMC5R) is given as “full hMC5R agonist” and the “functional activity at the rat MC5R” value (rat MC5R) is given as “full agonist”.
MGHFRWDRF [Peptide 27] gave a pEC50 (mMC3R; mMC3R EC50, agonist, mean ± SEM, >100000 = no activity at up to 100μM) of 7.00 and a pEC50 (mMC5R) of 6.44.
In the case of Ac-His-Phe-Arg-Trp-NH2, the “stimulation of melanocortin receptors” value (melanocortin receptors) is given as “able to fully stimulate”.
For YVMGHFRWDR [Peptide 6], the “selectivity for the mMC3R versus the mMC4R” value (mMC3R; from agonist EC50 values) was 18 fold.
